In patent US8134012B2 (priority 2005, dated 2012):
Like-named read-outs stand apart in the source and are kept apart here.

What was measured:
Pyricularia oryzae = type: cell-based
Alternaria mali = settings: active compound concentration 1 ppm; 3 days incubation in PDB; single active compound

SMILES	Efficacy in % found (Pyricularia oryzae; active compound concentration 0.03 ppm, 4 days incubation in PDB, single active compound)	Efficacy in % found (Alternaria mali)	Efficacy in % found (Pyricularia oryzae)
Cc1nn(C)c(F)c1C(=O)Nc1ccccc1C(C)CC(C)C (stereo not shown) [(1-2), N-[2-(1,3-dimethylbutyl)phenyl]-5-fluoro-1,3-dimethyl-1H-pyrazole-4-carboxamide]	20%	83%	–
COP(=S)(OC)Oc1c(Cl)cc(C)cc1Cl [(2) tolclofos-methyl, tolclofos-methyl]	–	–	13%
CC(C)Oc1cccc(NC(=O)c2ccccc2C(F)(F)F)c1 [(3) flutolanil, flutolanil]	–	12%	–
